# Test results: PMC12587545, “Noncytotoxic polymyxin derivatives enhance antibiotic action against multidrug-resistant Gram-negative bacteria” (Antimicrobial Agents and Chemotherapy, 2025)
# “And” between values parts separate entries of the source, which are not always exact repeats. Equal values may be shown once. Positions of bridges follow the written chain, without caps; N, C: chain ends. Non-standard residues stand in square brackets, D forms with d. Residues, ends and D or L forms follow the SMILES beside them. *: point of attachment. Octanoyl = CCCCCCCC(=O)*; Dab = NCC[C@H](N)C(=O)O; Dap = NC[C@H](N)C(=O)O
# Assays:
# P. aeruginosa = assay: Checkerboard assay (antibiotic potentiation); format: cell-based, Pseudomonas aeruginosa; conditions: for MICcompound 1: compound 1 alone
# A. baumannii = assay: Checkerboard assay (antibiotic potentiation); format: cell-based, Acinetobacter baumannii; conditions: compound 1 alone
# E. coli = assay: Checkerboard assay (antibiotic potentiation); format: cell-based, Escherichia coli; conditions: compound 1 alone
# K. pneumoniae = assay: Checkerboard assay (antibiotic potentiation); format: cell-based, Klebsiella pneumoniae; conditions: compound 1 alone
# E. cloacae = assay: Checkerboard assay (antibiotic potentiation); format: cell-based, Enterobacter cloacae; conditions: E. cloacae 121887 (colistin-resistant); compound 1 alone
# E. faecalis ATCC 29212 = assay: Checkerboard assay (rifampicin potentiation); format: cell-based; conditions: compound 1 alone
# Protocol: (§1) The interaction between the compounds and the antibiotics was evaluated using the fractional inhibitory concentration (FIC) index. FIC indices of ≤0.5 is synergistic, 0.5 < × ≤ 4 is additive, whereas >4 is antagonistic ([34]). […] .
# (§2) The bacterial isolates were acquired from ATCC or the Canadian Ward Surveillance (CANWARD) study ([56]). CANWARD isolates were collected from infected patients admitted to participating medical centers across Canada.
# (§3) The antibiotic and compounds were serially diluted 2-fold in CAMHB along the x- and y-axis, respectively, on a 96-well plate that was subsequently incubated with equal volumes of bacterial inoculum overnight at 37°C. Wells containing only media were used as negative controls, and wells containing only bacteria were used as positive controls. Synergy was measured by the FIC index, which is the summation of the individual FICs of the antibiotic and the compound. The FIC is calculated by dividing the MIC of one agent in the presence of another by the MIC of the agent alone. Turbidity was confirmed with a Molecular Devices (United States) EMax Plus microplate reader at a wavelength of 590 nm. The FBS studies were conducted by following a previously published protocol ([29], [50]). The FBS was inactivated by heating at 56°C for 30 min with constant swirling.
# E. faecium ATCC 27270 = assay: Checkerboard assay (rifampicin potentiation); format: cell-based; conditions: compound 1 alone
# Protocol: as §1, §2, §3
# [1] = system: Methicillin-resistant S. aureus ATCC 22592; assay: Checkerboard assay (rifampicin potentiation); format: cell-based; conditions: MRSA ATCC 22592; compound 1 alone
# Protocol: as §1, §2, §3
# P. aeruginosa 259-96916 = assay: Time-kill kinetics assay; conditions: monotherapy at 8 µg/mL, LB, 37°C, up to 24 h
# A. baumannii AB027 = assay: Time-kill kinetics assay; conditions: monotherapy at 8 µg/mL, LB, 37°C, up to 24 h
# Protocol: Bactericidal and bacteriostatic activity correspond to a ≥ 3 log10 and a < 3 log10 decrease in bacterial load after 24 h relative to the starting inoculum, respectively ([39]).
# The time- and concentration-dependent killing of the antibiotic/compound combinations was assessed using the time-kill kinetics assay by following a previously described protocol ([27][–][29]). Bacterial culture grown overnight was diluted in phosphate-buffered saline (PBS) to 0.5 McFarland turbidity and was further diluted 1:50 in LB. Bacterial cultures treated with varying concentrations of antibiotic alone, compound alone, or the combination of antibiotic and compound were incubated in a shaking incubator at 250 rpm and at 37°C. At designated time points, 100 µL aliquots were taken from the culture tubes, serially diluted in PBS, and plated on LB agar plates. The bacterial colonies were then counted after incubation of the plates for 18 h at 37°C.
compound,measurement,setting,value
CCCCCCCC(=O)N[C@@H](CN)C(=O)N[C@H](C(=O)N[C@@H](CN)C(=O)N[C@H]1CCNC(=O)[C@H]([C@@H](C)O)NC(=O)[C@H](CN)NC(=O)[C@H](CN)NC(=O)[C@H](CC(C)C)NC(=O)[C@@H](Cc2ccccc2)NC(=O)[C@H](CN)NC1=O)[C@@H](C)O [Compound 1] (Octanoyl-[Dap]T[Dap][Dab][Dap][dF]L[Dap][Dap]T; lactam 4-C),MICcompound 1,P. aeruginosa; P. aeruginosa 259-96916,>128 µg/mL
same,MICcompound 1,P. aeruginosa; P. aeruginosa 262-101856,>128 µg/mL
same,MICcompound 1,P. aeruginosa; P. aeruginosa 264-105354,>128 µg/mL
same,MICcompound 1,P. aeruginosa; P. aeruginosa 101243 (colistin-resistant),>128 µg/mL
same,MICcompound 1,P. aeruginosa; P. aeruginosa 114228 (colistin-resistant),>128 µg/mL
same,MICcompound 1,"P. aeruginosa; P. aeruginosa PAO1, 0% FBS",>128 µg/mL
same,MICcompound 1,"P. aeruginosa; P. aeruginosa PAO1, 10% FBS (heat-inactivated)",>128 µg/mL
same,MICcompound 1,"P. aeruginosa; P. aeruginosa PAO1, 25% FBS",>128 µg/mL
same,MICcompound 1,"P. aeruginosa; P. aeruginosa PAO1, 50% FBS",>128 µg/mL
same,MICcompound 1,"P. aeruginosa; P. aeruginosa PAO1, [Mg2+] 25 mM",>128 µg/mL
same,MICcompound 1,"P. aeruginosa; P. aeruginosa PAO1, [Mg2+] 0.4–0.5 mM (CAMHB)",>128 µg/mL
same,MICcompound,"P. aeruginosa; P. aeruginosa PAO1, compound alone",>128 µg/mL
same,MICcompound 1,A. baumannii; A. baumannii 92247 (colistin-resistant),>128 µg/mL
same,MICcompound 1,A. baumannii; A. baumannii 110193,32 µg/mL and 16 µg/mL
same,MICcompound 1,A. baumannii; A. baumannii AB027,>128 µg/mL
same,MICcompound 1,"A. baumannii; A. baumannii ATCC 17978, 0% FBS",16 µg/mL
same,MICcompound 1,"A. baumannii; A. baumannii ATCC 17978, 10% FBS (heat-inactivated)",>128 µg/mL
same,MICcompound 1,"A. baumannii; A. baumannii ATCC 17978, 25% FBS",>128 µg/mL
same,MICcompound 1,"A. baumannii; A. baumannii ATCC 17978, 50% FBS",>128 µg/mL
same,MICcompound 1,"A. baumannii; A. baumannii ATCC 17978, [Mg2+] 25 mM",>128 µg/mL
same,MICcompound 1,"A. baumannii; A. baumannii ATCC 17978, [Mg2+] 0.4–0.5 mM (CAMHB)",16 µg/mL
same,MICcompound 1,E. coli; E. coli 94393 (colistin-resistant),>128 µg/mL
same,MICcompound 1,E. coli; E. coli 94474 (colistin-resistant),>128 µg/mL
same,MICcompound 1,K. pneumoniae; K. pneumoniae 113250 (colistin-resistant),>128 µg/mL
same,MICcompound 1,K. pneumoniae; K. pneumoniae 116381,>128 µg/mL
same,MICcompound 1,E. cloacae,>128 µg/mL
same,MICcompound 1,E. faecalis ATCC 29212,>128 µg/mL
same,MICcompound 1,E. faecium ATCC 27270,>128 µg/mL
same,MICcompound 1,[1],>128 µg/mL
same,time-kill outcome,P. aeruginosa 259-96916,"decrease in growth up to 4 h, with regrowth occurring at 8 h"
same,time-kill outcome,A. baumannii AB027,growth curves similar to that of untreated bacteria
